Experimental findings from patent US10647720B2 (Asana Biosciences, LLC, priority 2011, dated 2020) are described below.

Test [1] has as its target Syk (356-635 amino acids)-catalytic domain (Homo sapiens (Human), UniProt P43405). Kind of test: Inhibition of enzymatic Syk kinase activity (radiometric). In kind it is biochemical. The source says:
The objective of this assay was to examine by radiometric method the ability of compounds to inhibit Syk kinase enzyme. Syk is capable of phosphorylating substrates such as VAV, LAT, SLP-76, which in turn activate MAPK, PLCγ signaling pathways. […] This in vitro assay tests the ability of syk to phosphorylate a substrate peptide in the presence of ATP. By using a radio-labeled form of ATP, it is possible to measure the amount of phosphorylation of the substrate. The enzyme transfers a radio-labeled phosphate group from γ32 P labeled ATP to pG4T. Briefly the enzyme was incubated with substrate, radio-labeled & cold ATP and substrate in buffer with or without compounds. At the end of the reaction, the reaction mixture was transferred on to a Multiscreen filter plate and unreacted γ^32P ATP was washed off. The filter plate was dried and the radioactivity was measured on a scintillation counter to estimate the incorporated radioactivity on the substrate. The percent inhibition of activity of the enzyme was calculated by comparing counts in the presence and absence of compounds. […] Microscint-O® reagent (100 μL, Perkin Elmer) was added to each well, the plate was sealed with Topseal®-A microplates and incubated for 10 minutes at room temperature at very low speed on rocker and the plate was read in the Topcount® NXL instrument.

For another test, the target named is JAK2 (Homo sapiens (Human), UniProt O60674). The experiment in a line: Inhibition of enzymatic JAK2 kinase activity (TR-FRET). In kind it is biochemical. From the text: The objective of this assay was to screen compounds in a Time-resolved fluorescence resonance energy transfer (TR-FRET) Enzymatic assay method for their potential to inhibit JAK2 (Janus kinase) activity.
JAK2, sequence (O60674 808-1132): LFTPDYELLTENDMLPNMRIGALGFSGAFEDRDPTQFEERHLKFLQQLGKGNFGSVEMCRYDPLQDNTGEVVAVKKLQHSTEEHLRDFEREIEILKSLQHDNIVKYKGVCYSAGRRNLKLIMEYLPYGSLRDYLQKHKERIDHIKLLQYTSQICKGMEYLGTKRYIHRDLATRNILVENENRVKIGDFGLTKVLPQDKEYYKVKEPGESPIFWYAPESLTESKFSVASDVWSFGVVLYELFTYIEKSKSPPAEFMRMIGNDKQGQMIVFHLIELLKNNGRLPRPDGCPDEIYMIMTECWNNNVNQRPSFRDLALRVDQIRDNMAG
TR-FRET assays are homogeneous proximity assays where Eu-labeled antiphosphotyrosine antibody binds to the phosphorylated substrates labeled with Ulight fluorescence acceptor. Eu can transfer energy to Ulight accepter in the complex and the interaction of two dye-labeled binding partners is detected by the energy transfer between a donor and an acceptor dye, and the subsequent light emission by the acceptor dye. The intensity of the light emission is proportional to the level of Ulight peptide phosphorylation.
Two μL of 10% DMSO in blank, substrate control and positive control wells and 2 μL of test compound in test wells was added. Thirteen μL of assay buffer in blank and substrate control wells and 13 μL of Enzyme buffer mix in positive and test wells was added. The reaction mixture was incubated for 30 minutes at RT on a plate shaker. […] The reaction plate was incubated for 60 minutes at RT on a plate shaker. The reaction was stopped by adding 40 mM EDTA (10 μL) in buffer. Ten μL of antibody was added to all the wells. The plate was read in a Wallac® 1420 Multilabel Counter Victor 3 instrument (Ex: 340 nm Em: 615 & 665 nm) The following calculations were made:
F@ 665 Value-Buffer blank […]
(Time-resolved FRET reads energy transfer from a long-lived donor to a nearby acceptor.)

The test system of another test is RBL2H3 cells. The experiment in a line: Degranulation assay: β-hexosaminidase release during immune complex mediated degranulation. It is filed as cell-based, Rat. Here is the method:
The objective of this assay was to examine by Fluorescence method the effect of compounds on β-hexosaminidase release during immune complex mediated degranulation in RBL2H3 cells. Compounds were tested for their ability to inhibit the ability of this immune complex to mediate β-hexosaminidase release, in an enzyme assay with p-nitrophenyl-β-D-glucosaminide as substrate. […] Emission 460 nm). RBL2H3 cells were maintained in MEM complete media containing 10% FBS at 70%-80% confluence in a mammalian cell culture CO2 incubator with 5% CO2 at 37° C. 2×10^5 cells/well were plated in 1 mL of complete media and incubated for 5 hours for cell attachment. Complete media was replaced with 1 mL of serum free MEM media containing 1.2 μg/mL of anti-DNP rat IgE as sensitizing agent and further incubated overnight with 5% CO2 at 37° C. […] Cells were further stimulated with 5 μg/mL of DNP-BSA for 60 minutes. Plates were centrifuged for 5 minutes at 1000 rpm and 25 μL of culture supernatant was transferred from each assay well into a 96 well black coated plate. 25 μL β-NAG substrate was added to this mixture and incubated at room temperature for 30 minutes. The reaction was terminated with 100 μL of stop solution and fluorescence was monitored. (Excitation 355 nm; Emission 460 nm) See, Sanderson, (2010), Cellular Immunology, 262(1): 28-34 and Silverman, (2006) MCB, 26(5):1826-1838, which are incorporated herein by reference. The % release of β-Hexosaminidase for the test compound was calculated using the following formula: RBL2H3 cells were maintained in MEM complete media containing 10% FBS at 70-80% confluence in a mammalian cell culture CO2 incubator with 5% CO2 at 37° C. 5×10^4 cells/well were plated in 200 μL of complete media containing 0.3 μg/mL of anti-DNP rat IgE as sensitizing agent for 24 hours at 37° C. & 5% CO2. The following day, cells were washed twice with PIPES buffer for 10 minutes at 37° C. and replenished with serum free MEM media. […] After incubation with substrate, 150 μL of stop solution was added and fluorescence was monitored. […]

In test [2] the test system is Collagen Induced Arthritis (CIA) in female Lewis rats. The experiment in a line: In vivo chronic study: Collagen Induced Arthritis (CIA). On the set-up: species or system rat. To be noted: 0.5 mg/Kg. Here is the method: Female Lewis rats (8 per group, 6-8 weeks old) were immunized on day 1 with type II collagen (Immunization grade Bovine type II; Chondrex; Cat #20021) emulsified with Complete Freund's Adjuvant (Sigma; Cat # F5881) at a final concentration of 1.2 mg/mL). For the initial immunization, the animals were injected at the base of the tail with 300 μg of the cII (0.25 mL/rat). A booster injection of the same type II collagen emulsified with Incomplete Freund's Adjuvant (Sigma, Cat #F5506) (0.25 mL/rat) was given to the animals on day 8 at the base of the tail (100 μg). The final cII concentration in the booster was […]. […]
Edema: Paw volumes are measured by Plethysmometry for the animals before induction of CIA (Basal readings) and on Day 1, 3, 6 and 9 of dosing period. Both hind paw volumes were measured and edema was calculated by subtracting from the basal mean.
Arthritic score: Animals were scored for the symptoms of arthritis every day starting from Day of onset of disease till the end of the study. Both the hind paws were scored and the total scores were averaged and compared with control. […]
The percent inhibition of Edema was calculated with respect to control by the formula: […]
The percent inhibition of Arthritic score was calculated with respect to control by the formula: […]

The structures appear in SMILES notation.

Usually IC50 stands for the point on the concentration scale where inhibition reaches its midpoint. Low readings indicate greater potency, high ones weaker potency. As a reminder, the inhibition is the relative decrease from the control value, in per cent. Lower therefore signals a response near the control. What is called EC50 is the concentration needed to bring the measured effect to its halfway point. Read a low EC50 as higher potency in that assay. Take `O=c1[nH]ncc2nc(N3CCCCCC3)nc(Nc3ccc(N4CCN(CCO)CC4)cc3)c12` [Example 190, 2-(azepan-1-yl)-4-((4-(4-(2-hydroxyethyl)piperazin-1-yl)-phenyl)amino)pyrimido[4,5-d]-pyridazin-5(6H)-one]: the IC50 (in test [1]; against JAK2) was less than 0.01 µM throughout. In the test on RBL2H3 cells (Rattus norvegicus, RBL-2H3, 1 μM, Assay Protocol B (96 well format)), this compound showed an inhibition at 1 µM of 83%. The compound also returned an EC50 in the test with RBL2H3 cells (Rattus norvegicus, RBL-2H3, Assay Protocol B (96 well format)) of 0.021 µM.
As to `CN(Cc1cnc2nc(N)nc(N)c2n1)c1ccc(C(=O)N[C@@H](CCC(=O)O)C(=O)O)cc1` [Methotrexate, methotrexate], the “Percent inhibition of Edema (Day 9 of dosing)” value in test [2] (Day 9 of dosing) is 6%. Also, in test [2] (Day 10 of dosing), the “Percent inhibition of Arthritic score (Day 10 of dosing)” value was found to be 15%.
Regarding `N=Cc1nc(N2CCCCCC2)nc(Nc2ccc(N3CCCC(CC(=O)O)C3)cc2)c1C(N)=O` (stereo not shown) [Example 232], the “Degranulation % inhibition at 1 μM” value with RBL2H3 cells (1 μM, Assay Protocol B (96 well format)) is given as 0%.
